Reference: patent US10273243B2, “4-phenylpiperidines, their preparation and use” (The Trustees of Columbia University in the City of New York, priority 2013, dated 2019)

What was measured:
[1] = tested on: retinal pigment epithelium cells; conditions: many cell types, including the retinal pigment epithelium cells; cited from earlier work
[2] = cited from earlier work
RBP4-TTR interaction = conditions: cited from earlier work
serum RBP4 and retinol = conditions: in vivo; cited from earlier work
Abca4−/− mice = conditions: animal model of excessive bisretinoid accumulation; cited from earlier work
RBP4 = RBP4 (Homo sapiens, UniProt P02753); conditions: cited from earlier work

## CC(C)CC(=O)N1Cc2[nH]nc(C(=O)N3CCC(c4ccccc4C(F)(F)F)CC3)c2C1 [Example 55, 3-Methyl-1-(3-(4-(2-(trifluoromethyl)phenyl)piperidine-1-carbonyl)pyrrolo[3,4-c]pyrazol-5(1H,4H,6H)-yl)butan-1-one]
other
  melting point: 200 to 203 °C

## CC(C)(C)C(=O)N1Cc2[nH]nc(C(=O)N3CCC(c4ccccc4C(F)(F)F)CC3)c2C1 [Example 56, 2,2-Dimethyl-1-(3-(4-(2-(trifluoromethyl)phenyl)piperidine-1-carbonyl)pyrrolo[3,4-c]pyrazol-5(1H,4H,6H)-yl)propan-1-one]
other
  melting point: 229 to 232 °C

## Cc1cnc2cc(C(=O)N3CCC(c4ccccc4C(F)(F)F)CC3)[nH]c2c1 [Example 70, (6-Methyl-1H-pyrrolo[3,2-b]pyridin-2-yl)(4-(2-(trifluoromethyl)phenyl)piperidin-1-yl)methanone]
other
  melting point: 254 to 258 °C

## O=C(c1nc2ncccc2[nH]1)N1CCC(c2ccccc2C(F)(F)F)CC1 [Example 71, (1H-Imidazo[4,5-b]pyridin-2-yl)(4-(2-(trifluoromethyl)phenyl)piperidin-1-yl)methanone]
other
  melting point: 249 to 251 °C

## Cn1c(C(=O)N2CCC(c3ccccc3C(F)(F)F)CC2)cc2ncccc21 [Example 74, (1-Methyl-1H-pyrrolo[3,2-b]pyridin-2-yl)(4-(2-(trifluoromethyl)phenyl)piperidin-1-yl)methanone]
other
  melting point: 159 to 163 °C

## O=C(c1cc2ncc(-n3ccnc3)cc2[nH]1)N1CCC(c2ccccc2C(F)(F)F)CC1 [Example 75, (6-(1H-Imidazol-1-yl)-1H-pyrrolo[3,2-b]pyridin-2-yl)(4-(2-(trifluoromethyl)phenyl)piperidin-1-yl)methanone]
other
  melting point: > 270 °C

## O=C(c1cc2ncc(N3CCOCC3)cc2[nH]1)N1CCC(c2ccccc2C(F)(F)F)CC1 [Example 76, (6-Morpholino-1H-pyrrolo[3,2-b]pyridin-2-yl)(4-(2-(trifluoromethyl)phenyl)piperidin-1-yl)methanone]
other
  melting point: 268 to 272 °C (dec.)

## O=C(c1cc2ncc(Cl)cc2[nH]1)N1CCC(c2ccccc2C(F)(F)F)CC1 [Example 77, (6-Chloro-1H-pyrrolo[3,2-b]pyridin-2-yl)(4-(2-(trifluoromethyl)phenyl)piperidin-1-yl)methanone]
other
  melting point: 258 to 261 °C

## O=C(c1ccnnc1)N1CCC(c2ccccc2C(F)(F)F)CC1 [Example 80, Pyridazin-4-yl(4-(2-(trifluoromethyl)phenyl)piperidin-1-yl)methanone]
other
  melting point: 159 to 162 °C

## O=C(c1ccc2nccn2n1)N1CCC(c2ccccc2C(F)(F)F)CC1 [Example 81, Imidazo[1,2-b]pyridazin-6-yl(4-(2-(trifluoromethyl)phenyl)piperidin-1-yl)methanone]
other
  melting point: 152 to 155 °C

## O=C(c1cccnn1)N1CCC(c2ccccc2C(F)(F)F)CC1 [Example 82, Pyridazin-3-yl(4-(2-(trifluoromethyl)phenyl)piperidin-1-yl)methanone]
other
  melting point: 125 to 127 °C

## O=C(c1ccc(Cl)nn1)N1CCC(c2ccccc2C(F)(F)F)CC1 [Example 83, (6-Chloropyridazin-3-yl)(4-(2-(trifluoromethyl)phenyl)piperidin-1-yl)methanone]
other
  melting point: 170 to 172 °C

## Cc1nnsc1C(=O)N1CCC(c2ccccc2C(F)(F)F)CC1 [Example 84, (4-Methyl-1,2,3-thiadiazol-5-yl)(4-(2-(trifluoromethyl)phenyl)piperidin-1-yl)methanone]
other
  melting point: 141 to 143 °C

## Cc1ccc(C(=O)N2CCC(c3ccccc3C(F)(F)F)CC2)nn1 [Example 85, (6-Methylpyridazin-3-yl)(4-(2-(trifluoromethyl)phenyl)piperidin-1-yl)methanone]
other
  melting point: 144 to 148 °C

## COc1ccc(C(=O)N2CCC(c3ccccc3C(F)(F)F)CC2)nn1 [Example 86, (6-Methoxypyridazin-3-yl)(4-(2-(trifluoromethyl)phenyl)piperidin-1-yl)methanone]
other
  melting point: 122 to 125 °C

## O=C(c1cnccn1)N1CCC(c2ccccc2C(F)(F)F)CC1 [Example 87, Pyrazin-2-yl(4-(2-(trifluoromethyl)phenyl)piperidin-1-yl)methanone]
other
  melting point: 109 to 111 °C

## O=C(c1cnn[nH]1)N1CCC(c2ccccc2C(F)(F)F)CC1 [Example 88, (1H-1,2,3-Triazol-5-yl)(4-(2-(trifluoromethyl)phenyl)piperidin-1-yl)methanone]
other
  melting point: 235 to 239 °C (dec.)

## Cc1nc2ccc(Cl)nn2c1C(=O)N1CCC(c2ccccc2C(F)(F)F)CC1 [Example 89, (6-Chloro-2-methylimidazol[1,2-b]pyridazin-3-yl)(4-(2-(trifluoromethyl)phenyl)piperidin-1-yl)methanone]
other
  melting point: 147 to 150 °C

## O=C(c1ccn[nH]1)N1CCC(c2ccccc2C(F)(F)F)CC1 [Example 90, (1H-pyrazol-5-yl)(4-(2-(trifluoromethyl)phenyl)piperidin-1-yl)methanone]
other
  melting point: 167 to 170 °C

## NC(=O)c1ccc(C(=O)N2CCC(c3ccccc3C(F)(F)F)CC2)cc1 [Example 92, 4-(4-(2-(Trifluoromethyl)phenyl)piperidine-1-carbonyl)benzamide]
other
  melting point: 188 to 190 °C

## NC(=O)c1cccc(C(=O)N2CCC(c3ccccc3C(F)(F)F)CC2)c1 [Example 93, 3-(4-(2-(Trifluoromethyl)phenyl)piperidine-1-carbonyl)benzamide]
other
  melting point: 192 to 194 °C

## CC(=O)N1CCCC1C(=O)N1CCC(c2ccccc2C(C)(C)C)CC1 (stereo not shown) [Example 97, 1-(2-(4-(2-(Tert-butyl)phenyl)piperidine-1-carbonyl)pyrrolidin-1-yl)ethanone]
other
  melting point: 50 to 60 °C

## CC(C)(C)c1ccccc1C1CCN(C(=O)[C@H]2C[C@@H](O)CN2)CC1 [Example 98, (4-(2-(Tert-butyl)phenyl)piperidin-1-yl)((2R,4R)-4-hydroxypyrrolidin-2-yl)methanone]
other
  melting point: 65 to 75 °C

## CC(C)(C)c1ccccc1C1CCN(C(=O)C2CCCS2(=O)=O)CC1 (stereo not shown) [Example 100, (4-(2-(tert-butyl)phenyl)piperidin-1-yl)(1,1-dioxidotetrahydrothiophen-2-yl)methanone]
other
  melting point: 80 to 84 °C

## NS(=O)(=O)Oc1ccccc1CC(=O)N1CCC(c2ccccc2C(F)(F)F)CC1 [Example 102, 2-(2-Oxo-2-(4-(2-(trifluoromethyl)phenyl)piperidin-1-yl)ethyl)phenylsulfamate]
other
  melting point: 170 to 173 °C

## CC1(C(=O)N2CCC(c3ccccc3C(F)(F)F)CC2)COC1 [Example 103, (3-Methyloxetan-3-yl)(4-(2-(trifluoromethyl)phenyl)piperidin-1-yl)methanone]
other
  melting point: 100 to 102 °C

## CC1=C(/C=C/C(C)=C/C=C/C(C)=C/C(=O)Nc2ccc(O)cc2)C(C)(C)CCC1 [fenretinide, N-(4-hydroxy-phenyl)retinamide]
[1]
  induction of apoptosis: extremely active inducer of apoptosis
[2]; mice
  formation of hemangiosarcomas: stimulate formation of hemangiosarcomas
[2]; mouse, in vivo
  selectivity and toxicity: non-selective and toxic
  teratogenicity: teratogenic
RBP4-TTR interaction
  disruption of RBP4-TTR interaction: disrupt the RBP4-TTR interaction
Serum RBP4 and retinol
  ocular all-trans retinol uptake: inhibit ocular all-trans retinol uptake
  serum RBP4 and retinol: reduce serum RBP4 and retinol
  visual cycle: slow down the visual cycle
Abca4−/− mice
  A2E production: reduced A2E production
RBP4
  binding to RBP4: bind to RBP4
  displacement of all-trans retinol from RBP4: displace all-trans retinol from RBP4
